Assay results from patent US20150141523A1, “COMPOUNDS FOR USE IN THE TREATMENT OF AUTOIMMUNE INFLAMMATORY DISEASE” (Venantius Limited, priority 2012, published 2015).

How the values were obtained:
Balb/C mice [1] = assay: 5% DSS-induced murine colitis model; type: in vivo, mouse; conditions: for inhibition of DAI in DSS-induced colitis: 5% DSS colitis (FIG. 9)
CD-1 mice = assay: Methylated bovine serum albumin (mBSA) delayed-type hypersensitivity mouse paw swelling; type: in vivo; conditions: 10 mg/kg i.p.; mBSA challenge alone 107%
Protocol: CD-1 mice (25-35 gms) were anaesthetised with halothane and immunised intradermal (i.d.) with mBSA/Freunds complete adjuvant containing Mycobacterium butyricum (FCA(B)) emulsion at four sites (62.5 μg/25 μl at each site) on the shaved chest on day 1. The mBSA/FCA(B) is prepared by emulsifying equal volumes of mBSA and FCA(B) solutions (the mBSA solution was first prepared in sterile isotonic saline at a concentration of 5 mg/mL). On days 8 and 9, mice were dosed intraperitoneal (i.p.) with either 1% carboxymethylcellulose (CMC), CycA or a novel compound in 1% CMC. Two hours after the second i.p. dose (day 9), anaesthetised mice were challenged, by injecting mBSA in saline subcutaneous (s.c.) in the dorsal surface of the right hind paw and s.c. in the left hind paw with saline alone (20 μl each injection). 24 hours later, mice were sacrificed by cervical dislocation, and the swelling of each paw was measured in triplicate with a plethysmometer.
Paw swelling (% difference)={mBSA injected paw volume (mls)}−{saline injected paw volume (mls)}×100%
Saline Injected Paw Volume (mls)

Balb/C mice [2] = assay: Oxazolone contact hypersensitivity (CHS) mouse ear swelling; type: in vivo; conditions: P>0.05
Protocol: Female Balb/C mice (30-40 gms) were sensitised on day 0 with 20 μl of 2% oxazolone in acetone on each ear (10 μl on the inner and outer aspects of both ears). All mice were challenged on day 5 with 20 μl of 2% oxazolone in acetone only on the right ear; again, 10 μl on both the inner and outer aspects of the ear. Immediately following this, the mice were treated with test compound. The test compound was administered in exactly the same way as the oxazolone, with 10 μl on each side of the right ear. […] For the […] group, acetone was administered. All animals were killed 24 hrs later and the percentage increase in ear swelling was calculated. This was done in two ways. The thickness of the unchallenged left ear and the challenged right ear were measured using a micrometer caliper (μm). The increase in weight of both ears was also measured using a 5 mm biopsy punch (mgs). The percentage increase in oedema was then calculated for both weight and thickness by expressing the difference between the unchallenged left ear and the challenged right ear as a percentage of the left ear control.

Compound | inhibition of DAI in DSS-induced colitis (Balb/C mice [1]) | effect on DSS-induced weight loss (Balb/C mice [1]; 5% DSS colitis, 30 mg/kg p.o. (FIG. 8)) | mBSA paw swelling (CD-1 mice) [%] | effect on oxazolone mouse ear swelling (Balb/C mice [2])
O[C@H]1c2ccccc2C[C@]1(Cc1ccccc1)C1=Cc2ccccc2C1 (mixture of isomers) [Compound 6, (S,S and RR)2-Benzyl-2,3-dihydro-1H,1′H-2,2′-biinden-1-ol] | significant (P<0.01) inhibition | ameliorated | 71 | no significant effect
O[C@@H]1c2ccccc2C[C@]1(Cc1ccccc1)C1=Cc2ccccc2C1 (mixture of isomers) [Compound 5, (R,S and SR)2-Benzyl-2,3-dihydro-1H,1′H-2,2′-biinden-1-ol] | only 6 caused a significant |  | 72 | no significant effect
